Data on 6 molecules can be found in patent publication US6342501B1, “Pyrrolo[2,3-d] pyrimidines as antiviral agents” (The Regents of the University of Michigan, priority 1994, dated 2002).

The subject of data set [1] is human cytomegalovirus (HCMV). Nature of the data set: microbe, parasite or virus in culture. Conditions: for pIC50: Human betaherpesvirus 5, HFF, read-out: HCMV; for antiviral activity against HCMV (in words): comment on Table 1 data. The format is cell-based, Towne strain.
The subject of data set [2] is herpes simplex virus type 1 (HSV-1). Nature of the data set: HSV-1 ELISA in BSC-1 cells. The format is cell-based, KOS strain. Conditions: Human alphaherpesvirus 1, 72 h; Table 1; fifty-percent inhibitory concentration, ELISA, BSC-1 cells, 3-day incubation; read-out: HSV-1. Background: An ELISA detects its analyte on a solid surface through an enzyme-linked reagent.
Data set [3] concerns human foreskin fibroblasts (HFF cells). Nature of the data set: Cytotoxicity in stationary HFF cells (microscopic inspection of plaque assay cells). It counts as cell-based. Conditions: Table 1, cytotoxicity, stationary HFF cells, visual, read-out: HFF.
A further data set has as its system KB cells. Nature of the data set: Cytotoxicity: KB cell growth (crystal violet staining). Conditions: Homo sapiens; Table 1; cytotoxicity, KB cell growth, 48 hours; read-out: KBgrv. The format is cell-based.
Another data set has as its system HCMV. Conditions: prior studies; mechanism other than inhibition of DNA synthesis, early in replication cycle; cited from earlier work.
For a further data set, the system named is HSV-1. Conditions: prior studies; mechanism other than inhibition of DNA synthesis, early in replication cycle; cited from earlier work.

pIC50: −log10 of the molar value.

Broadly, the melting point is the temperature of the solid-liquid transition. For `N#Cn1c(Br)c(CCc2ccc(Cl)cc2)c2ncnc(N)c21` [Compound 6f, 4-Amino-6-Bromo-5-cyano-7-(4-chlorophenethyl)pyrrolo[2,3]pyrimidine], the melting point was 280 °C (dec.).

In the case of `NC(=S)c1cn(CCc2ccccc2)c2ncnc(N)c12` [Compound 1446, 4-amino-7-(2-phenyl)ethyl-pyrrolo[2,3-d]pyrimidine-5-thiocarboxamide], the pIC50 in data set [1] is < 6.00; in data set [2], 6.19; in data set [3], 4.00; with KB cells, 5.00. In data set [1], the “antiviral activity against HCMV (in words)” value is reported as “excellent activity”.

In the case of `N#Cc1c(N)n(Cc2cccc(N)c2)c2ncnc(N)c12` [Compound 1455, 4,6-diamino-7-(3-aminobenzyl)-pyrrolo[2,3-d]pyrimidine-5-carbonitrile], the pIC50 is 5.19 in data set [1], < 4.00 in data set [2], < 4.00 in data set [3] and 4.40 in the data set with KB cells. In addition, the “antiviral activity against HCMV (in words)” value in data set [1] is listed as “Some activity”.

Regarding `N#Cc1c(Br)n(Cc2cccc(Cl)c2)c2ncnc(N)c12` [Compound 1461, 4-amino-6-bromo-7-(3-chlorobenzyl)-pyrrolo[2,3-d]pyrimidine-5-carbonitrile], the pIC50 (in data set [1]; in data set [2]; in data set [3]; in the data set on KB cells) was < 4.00 each time.

Regarding `N#Cc1c(Br)n(Cc2ccc(Cl)c(Cl)c2)c2ncnc(N)c12` [Compound 1462, 4-amino-6-bromo-7-(3,4-dichlorobenzyl)-pyrrolo[2,3-d]pyrimidine-5-carbonitrile], the pIC50 (in data set [1]; in data set [2]; in data set [3]; in the data set on KB cells) was < 4.00 in each case.

For the molecule `COCCOCn1cc(C(N)=S)c2c(N)ncnc21` [compound 5b, 4-amino-7-[(2-methoxyethoxy)methyl]pyrrolo[2,3-d]pyrimidine-5-thiocarboxamide], the “inhibition of HCMV viral replication (in words)” value in the data set on HCMV is “inhibited”. The “inhibition of HSV-1 viral replication (in words)” value in the data set on HSV-1 is given as “inhibited”.
